Test results taken from US20230322761A1, “DEGRADATION OF BRUTON'S TYROSINE KINASE (BTK) BY CONJUGATION OF BTK INHIBITORS WITH E3 LIGASE LIGAND AND METHODS OF USE” (BEIGENE, LTD., priority 2020, published 2023).
Structures can show the parent of a compound that is named as a salt.

target: T1, BTK (Homo sapiens, UniProt Q06187); test: BTK degradation in TMD-8 cells, HTRF assay after 6 h treatment; type: cell-based; conditions: IC50 (DC50) of BTK degradation
T1 construct: endogenous in cells; host or cells: TMD-8 cells
T1 sequence (Q06187 whole entry): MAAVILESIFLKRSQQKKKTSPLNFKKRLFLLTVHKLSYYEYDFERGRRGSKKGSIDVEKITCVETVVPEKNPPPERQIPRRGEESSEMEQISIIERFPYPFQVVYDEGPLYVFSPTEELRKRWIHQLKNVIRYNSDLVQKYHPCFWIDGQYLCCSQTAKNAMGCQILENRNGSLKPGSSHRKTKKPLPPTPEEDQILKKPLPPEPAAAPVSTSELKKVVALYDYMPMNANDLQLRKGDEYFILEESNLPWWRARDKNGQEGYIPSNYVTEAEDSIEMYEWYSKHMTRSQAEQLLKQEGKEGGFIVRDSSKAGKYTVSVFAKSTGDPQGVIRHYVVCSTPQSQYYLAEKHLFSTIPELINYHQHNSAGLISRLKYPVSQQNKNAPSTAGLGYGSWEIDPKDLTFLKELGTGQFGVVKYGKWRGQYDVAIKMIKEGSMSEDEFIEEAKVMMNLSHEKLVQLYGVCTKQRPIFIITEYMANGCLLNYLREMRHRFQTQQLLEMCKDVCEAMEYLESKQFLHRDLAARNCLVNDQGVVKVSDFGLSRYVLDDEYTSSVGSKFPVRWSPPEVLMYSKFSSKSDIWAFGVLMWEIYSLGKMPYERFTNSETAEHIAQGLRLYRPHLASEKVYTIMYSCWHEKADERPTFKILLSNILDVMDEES
Procedure: TMD-8 cells are treated with compounds diluted in 0.2% DMSO, dilution is done according to the following protocol: (1) make 500× stock solution in DMSO from 1 mM by 6-fold dilution, total 8 doses were included; (2) make 2× solution in cell culture medium by transferring 0.5 μl 500× stock solution into 125 μl medium; (3) 15 μl of 2× solution is added to cells and incubate for 6 h.
After 6 h treatment, add 10 μl 4×lysis buffer to each well; seal the plate and incubate 30 min at room temperature on a plate shaker; Once the cells are lysed, 16 μL of cell lysate are transferred to a PE 384-well HTRF detection plate; 4 μL of pre-mixed HTRF antibodies are added to each well; Cover the plate with a plate sealer, spin 1000 rpm for 1 min, Incubate overnight at room temperature; Read on BMG PheraStar with HTRF protocol (337 nm-665 nm-620 nm).
The IC50 (DC50) value of a compound can be obtained by fitting the following equation
Y=Bottom+(TOP−Bottom)/(1+((IC50/X)^hillslope))
Wherein, X and Y are known values, and IC50, Hillslope, Top and Bottom are the parameters obtained by fitting with software. Y is the inhibition percentage (calculated from the equation), X is the concentration of the compound; IC50 is the concentration of the compound when the 50% inhibition is reached. The smaller the IC50 value is, the stronger the inhibitory ability of the compound is. Vice versa, the higher the IC50 value is, the weaker the ability the inhibitory ability of the compound is; Hillslope represents the slope of the fitted curve, generally around 1*; Bottom represents the minimum value of the curve obtained by data fitting, which is generally 0%±20%; Top represents the maximum value of the curve obtained by data fitting, which is generally 100%±20%. The experimental data were fitted by calculating and analyzing with Dotmatics data analysis software.

| Structure (SMILES) | DC50 |
| --- | --- |
| Cc1cc(-c2n[nH]c3ncc(-c4ccc(N5CCN(CCc6ccc([C@@H]7CCC(=O)NC7=O)c(F)c6)CC5)cn4)cc23)ccc1[C@@H](C)NC(=O)c1noc(C(C)(C)C)n1 [Example 182, 5-(tert-butyl)-N—((R)-1-(4-(5-(5-(4-(4-((S)-2,6-dioxopiperidin-3-yl)-3-fluorophenethyl)piperazin-1-yl)pyridin-2-yl)-1H-pyrazolo[3,4-b]pyridin-3-yl)-2-methylphenyl)ethyl)-1,2,4-oxadiazole-3-carboxamide] | 11.8 nM |
| Cc1cc(-c2n[nH]c3ncc(-c4ccc(N5CCN(CC6CCN(c7ccc(N8CCC(=O)NC8=O)cc7)CC6)CC5)cc4)cc23)c(F)cc1CNC(=O)c1noc(C(C)(C)C)n1 [Example 100, 5-(tert-butyl)-N-(4-(5-(4-(4-((1-(4-(2,4-dioxotetrahydropyrimidin-1(2H)-yl)phenyl)piperidin-4-yl)methyl)piperazin-1-yl)phenyl)-1H-pyrazolo[3,4-b]pyridin-3-yl)-5-fluoro-2-methylbenzyl)-1,2,4-oxadiazole-3-carboxamide] | 10.2 nM |
| CC(C)(C)c1noc(C(=O)NCc2ccc(-c3n[nH]c4ncc(-c5ccc(N6CCN(CCC7CCN(c8ccc(N9CCC(=O)NC9=O)c(F)c8)CC7)CC6)cc5)cc34)cc2F)n1 [Example 17, 3-(tert-butyl)-N-(4-(5-(4-(4-(2-(1-(4-(2,4-dioxotetrahydropyrimidin-1(2H)-yl)-3-fluorophenyl)piperidin-4-yl)ethyl)piperazin-1-yl)phenyl)-1H-pyrazolo[3,4-b]pyridin-3-yl)-2-fluorobenzyl)-1,2,4-oxadiazole-5-carboxamide] | 5.9 nM |
| COc1cc(OCCCN2CCN(c3ccc(-c4cnc5[nH]nc(-c6ccc([C@@H](C)NC(=O)c7noc(C(C)(C)C)n7)c(C)c6)c5c4)cc3)CC2)ccc1NC1CCC(=O)NC1=O (stereo partly drawn) [Example 130, 5-(tert-butyl)-N-((1R)-1-(4-(5-(4-(4-(3-(4-((2,6-dioxopiperidin-3-yl)amino)-3-methoxyphenoxy)propyl)piperazin-1-yl)phenyl)-1H-pyrazolo[3,4-b]pyridin-3-yl)-2-methylphenyl)ethyl)-1,2,4-oxadiazole-3-carboxamide] | 5.28 nM |
| Cc1cc(CCN2CC3CC2CN3c2ccc(-c3cnc4[nH]nc(-c5ccc([C@@H](C)NC(=O)c6noc(C(C)(C)C)n6)c(C)c5)c4c3)nc2)ncc1C1CCC(=O)NC1=O (stereo partly drawn) [Example 173, 5-(tert-butyl)-N-((1R)-1-(4-(5-(5-(5-(2-(5-(2,6-dioxopiperidin-3-yl)-4-methylpyridin-2-yl)ethyl)-2,5-diazabicyclo[2.2.1]heptan-2-yl)pyridin-2-yl)-1H-pyrazolo[3,4-b]pyridin-3-yl)-2-methylphenyl)ethyl)-1,2,4-oxadiazole-3-carboxamide] | > 2000 nM |
| Cc1cc(-c2n[nH]c3ncc(-c4ccc(N5CCN(CCc6ccc(C7CCC(=O)NC7=O)c(C)n6)CC5)cn4)cc23)ccc1[C@@H](C)NC(=O)c1noc(C(C)(C)C)n1 (stereo partly drawn) [Example 163, 5-(tert-butyl)-N-((1R)-1-(4-(5-(5-(4-(2-(5-(2,6-dioxopiperidin-3-yl)-6-methylpyridin-2-yl)ethyl)piperazin-1-yl)pyridin-2-yl)-1H-pyrazolo[3,4-b]pyridin-3-yl)-2-methylphenyl)ethyl)-1,2,4-oxadiazole-3-carboxamide] | 2.13 nM |
| Cc1cc(-c2n[nH]c3ncc(-c4ccc(N5CCN(CC6CCN(c7ccc(N8CCC(=O)NC8=O)cc7)CC6)CC5)cc4)cc23)ccc1CNC(=O)c1cnc(C(C)(C)C)s1 [Example 94, 2-(tert-butyl)-N-(4-(5-(4-(4-((1-(4-(2,4-dioxotetrahydropyrimidin-1(2H)-yl)phenyl)piperidin-4-yl)methyl)piperazin-1-yl)phenyl)-1H-pyrazolo[3,4-b]pyridin-3-yl)-2-methylbenzyl)thiazole-5-carboxamide] | 13.1 nM |
| Cc1cc(-c2n[nH]c3ncc(-c4ccc(N5CC6CN(CCc7ccc(C8CCC(=O)NC8=O)cc7)CC6C5)cn4)cc23)ccc1[C@@H](C)NC(=O)c1noc(C(C)(C)C)n1 (stereo partly drawn) [Example 174, 5-(tert-butyl)-N-((1R)-1-(4-(5-(5-(5-(4-(2,6-dioxopiperidin-3-yl)phenethyl)hexahydropyrrolo[3,4-c]pyrrol-2(1H)-yl)pyridin-2-yl)-1H-pyrazolo[3,4-b]pyridin-3-yl)-2-methylphenyl)ethyl)-1,2,4-oxadiazole-3-carboxamide] | 1.68 nM |
| Cc1cc(-c2n[nH]c3ncc(-c4ccc(C5(O)CCN(CC6CCN(c7ccc(N8CCC(=O)NC8=O)cc7)CC6)CC5)cc4)cc23)ccc1[C@@H](C)NC(=O)c1nc(C(C)(C)C)no1 [Example 201, (R)-3-(tert-butyl)-N-(1-(4-(5-(4-(1-((1-(4-(2,4-dioxotetrahydropyrimidin-1(2H)-yl)phenyl)piperidin-4-yl)methyl)-4-hydroxypiperidin-4-yl)phenyl)-1H-pyrazolo[3,4-b]pyridin-3-yl)-2-methylphenyl)ethyl)-1,2,4-oxadiazole-5-carboxamide] | 1.79 nM |
| Cc1nc(CCN2CCN(c3ccc(-c4cnc5[nH]nc(-c6ccc([C@@H](C)NC(=O)c7noc(C(C)(C)C)n7)c(C)c6F)c5c4)cc3)CC2)ccc1C1CCC(=O)NC1=O (stereo partly drawn) [Example 166, 5-(tert-butyl)-N-((1R)-1-(4-(5-(4-(4-(2-(5-(2,6-dioxopiperidin-3-yl)-6-methylpyridin-2-yl)ethyl)piperazin-1-yl)phenyl)-1H-pyrazolo[3,4-b]pyridin-3-yl)-3-fluoro-2-methylphenyl)ethyl)-1,2,4-oxadiazole-3-carboxamide] | 3.07 nM |

The next lines start with the values.

| DC50 | Structure (SMILES) |
| --- | --- |
| 4.03 nM | Cc1cc(-c2n[nH]c3ncc(-c4ccc(N5CCN(CC(F)(F)c6ccc(C7CCC(=O)NC7=O)cn6)CC5)cc4)cc23)ccc1[C@@H](C)NC(=O)c1nc(C(C)(C)C)no1 (stereo partly drawn) [Example 192, 3-(tert-butyl)-N-((1R)-1-(4-(5-(4-(4-(2-(5-(2,6-dioxopiperidin-3-yl)pyridin-2-yl)-2,2-difluoroethyl)piperazin-1-yl)phenyl)-1H-pyrazolo[3,4-b]pyridin-3-yl)-2-methylphenyl)ethyl)-1,2,4-oxadiazole-5-carboxamide] |
| 1.89 nM | Cc1cc(-c2n[nH]c3ncc(-c4ccc(N5CCN(CCc6ccc(C7CCC(=O)NC7=O)cc6)CC5)cc4)cc23)ccc1CNC(=O)c1noc(C(C)(C)C)n1 (centres unmarked) [Example 107, 5-(tert-butyl)-N-(4-(5-(4-(4-(4-(2,6-dioxopiperidin-3-yl)phenethyl)piperazin-1-yl)phenyl)-1H-pyrazolo[3,4-b]pyridin-3-yl)-2-methylbenzyl)-1,2,4-oxadiazole-3-carboxamide] |
| 1.01 nM | Cc1cc(-c2n[nH]c3ncc(-c4ccc(N5CCN(CCc6ccc([C@H]7CCC(=O)NC7=O)cc6)CC5)cn4)cc23)ccc1[C@@H](C)NC(=O)c1noc(C(C)(C)C)n1 [Example 162, 5-(tert-butyl)-N—((R)-1-(4-(5-(5-(4-(4-((R)-2,6-dioxopiperidin-3-yl)phenethyl)piperazin-1-yl)pyridin-2-yl)-1H-pyrazolo[3,4-b]pyridin-3-yl)-2-methylphenyl)ethyl)-1,2,4-oxadiazole-3-carboxamide] |
| 0.635 nM | Cc1cc(-c2n[nH]c3ncc(-c4ccc(CCN5CCC(c6ccc([C@H]7CCC(=O)NC7=O)cc6)CC5)cc4)cc23)ccc1CNC(=O)c1nc(C(C)(C)C)no1 [Example 89, (R)-3-(tert-butyl)-N-(4-(5-(4-(2-(4-(4-(2,6-dioxopiperidin-3-yl)phenyl)piperidin-1-yl)ethyl)phenyl)-1H-pyrazolo[3,4-b]pyridin-3-yl)-2-methylbenzyl)-1,2,4-oxadiazole-5-carboxamide] |
| 2.23 nM | Cc1c(CNC(=O)c2nc(C(C)(C)C)no2)ccc(-c2n[nH]c3ncc(-c4ccc(C5CCN(CC6CCN(c7ccc(N8CCC(=O)NC8=O)cc7)CC6)CC5)cc4)cc23)c1F [Example 219, 3-(tert-butyl)-N-(4-(5-(4-(1-((1-(4-(2,4-dioxotetrahydropyrimidin-1(2H)-yl)phenyl)piperidin-4-yl)methyl)piperidin-4-yl)phenyl)-1H-pyrazolo[3,4-b]pyridin-3-yl)-3-fluoro-2-methylbenzyl)-1,2,4-oxadiazole-5-carboxamide] |

same assay, conditions: IC50 (DC50) of BTK degradation, formate

| DC50 | Structure (SMILES) |
| --- | --- |
| 1.89 nM | Cc1cc(-c2n[nH]c3ncc(-c4ccc(N5CCN(C6CC(c7ccc(C8CCC(=O)NC8=O)cc7)C6)CC5)cc4)cc23)ccc1[C@@H](C)NC(=O)c1noc(C(C)(C)C)n1 (stereo partly drawn) [Example 176, 5-(tert-butyl)-N-((1R)-1-(4-(5-(4-(4-(3-(4-(2,6-dioxopiperidin-3-yl)phenyl)cyclobutyl)piperazin-1-yl)phenyl)-1H-pyrazolo[3,4-b]pyridin-3-yl)-2-methylphenyl)ethyl)-1,2,4-oxadiazole-3-carboxamide formate] |

same assay, conditions: TMD8, maximum percentage of inhibition (degradation)

| Dmax | Structure (SMILES) |
| --- | --- |
| 96.4% | CC(C)(C)c1noc(C(=O)NCc2ccc(-c3n[nH]c4ncc(-c5ccc(N6CCN(CCC7CCN(c8ccc(N9CCC(=O)NC9=O)c(F)c8)CC7)CC6)cc5)cc34)cc2F)n1 [Example 17, 3-(tert-butyl)-N-(4-(5-(4-(4-(2-(1-(4-(2,4-dioxotetrahydropyrimidin-1(2H)-yl)-3-fluorophenyl)piperidin-4-yl)ethyl)piperazin-1-yl)phenyl)-1H-pyrazolo[3,4-b]pyridin-3-yl)-2-fluorobenzyl)-1,2,4-oxadiazole-5-carboxamide] |
